Experimental data published in ChEMBL document CHEMBL3868595, “Plazomicin is effective in a non-human primate pneumonic plague model” (Bioorg Med Chem, 2016).

Columns and labels:
Yersinia pestis [1] = experiment: Antibacterial activity against Yersinia pestis Colorado 92 infected in African green monkey B6436 model assessed as bacterial burden in lung at 25 mg/kg, iv administered within 6 hrs post onset of sustained fever as 30 mins infusion for 5 days (reference value: 7.7 10^8CFU/g); type: functional, CO92
African green monkey [2] = experiment: Toxicity in African green monkey 7653 model infected with Yersinia pestis Colorado 92 assessed as blood urea nitrogen level at 25 mg/kg, iv administered within 6 hrs post onset of sustained fever as 30 mins infusion for 10 days (reference value: 22 mg/dl); type: organism-based; settings: chlorocebus sabaeus, in vivo
Yersinia pestis [3] = experiment: Antibacterial activity against Yersinia pestis Colorado 92 infected in African green monkey B6861 model assessed as bacterial burden in liver at 6.25 mg/kg, iv administered within 6 hrs post onset of sustained fever as 30 mins infusion for 5 days (reference value: 5.2 10^8CFU/g); type: functional, CO92
Yersinia pestis [4] = experiment: Antibacterial activity against Yersinia pestis Colorado 92 infected in African green monkey B6988 model assessed as bacterial burden in kidney at 6.25 mg/kg, iv administered within 6 hrs post onset of sustained fever as 30 mins infusion for 5 days (reference value: 7.1 10^7CFU/g); type: functional, CO92
[5] = Volume of distribution at steady state in African green monkey blood at 35 mg/kg administered as iv infusion twice daily for 7 consecutive days measured on day 1 by LC-MS/MS analysis; type: ADME, organism-based; settings: chlorocebus aethiops, read-out: Vdss
African green monkey [6] = experiment: Toxicity in African green monkey 7653 model infected with Yersinia pestis Colorado 92 assessed as serum creatinine level at 25 mg/kg, iv administered within 6 hrs post onset of sustained fever as 30 mins infusion for 10 days (reference value: 0.6 mg/dl); type: organism-based; settings: chlorocebus sabaeus, in vivo
African green monkey [7] = experiment: Toxicity in African green monkey 7337 model infected with Yersinia pestis Colorado 92 assessed as serum gamma glutamyl-transferase level at 25 mg/kg, iv administered within 6 hrs post onset of sustained fever as 30 mins infusion for 10 days (reference value: 67 IU/L); type: organism-based; settings: chlorocebus sabaeus, in vivo
Yersinia pestis [8] = experiment: Antibacterial activity against Yersinia pestis Colorado 92 infected in African green monkey B6988 model assessed as bacterial burden in blood at 6.25 mg/kg, iv administered within 6 hrs post onset of sustained fever as 30 mins infusion for 5 days (reference value: 1.2 10^7CFU/ml); type: functional, CO92
Yersinia pestis [9] = experiment: Antibacterial activity against Yersinia pestis Colorado 92 infected in African green monkey B6889 model assessed as bacterial burden in blood at 6.25 mg/kg, iv administered within 6 hrs post onset of sustained fever as 30 mins infusion for 5 days (reference value: 1.2 10^7CFU/ml); type: functional, CO92
Yersinia pestis [10] = experiment: Antibacterial activity against Yersinia pestis Colorado 92 infected in African green monkey B6415 model assessed as bacterial burden in brain at 25 mg/kg, iv administered within 6 hrs post onset of sustained fever as 30 mins infusion for 5 days (reference value: 1.9 10^6CFU/g); type: functional, CO92
Yersinia pestis [11] = experiment: (§1) Antibacterial activity against Yersinia pestis Colorado 92 infected in African green monkey B6861 model assessed as bacterial burden in spleen at 6.25 mg/kg, iv administered within 6 hrs post onset of sustained fever as 30 mins infusion for 5 days (reference value: 1.6 10^9CFU/g); type: functional, CO92
[12] = Toxicity in African green monkey 7929 model infected with Yersinia pestis Colorado 92 assessed as total white blood cell count at 25 mg/kg, iv administered within 6 hrs post onset of sustained fever as 30 mins infusion for 10 days (reference value: 10.9 10^3/microL); type: organism-based; settings: chlorocebus aethiops, in vivo
Yersinia pestis [13] = experiment: Antibacterial activity against Yersinia pestis Colorado 92 infected in African green monkey 8047 model assessed as bacterial burden in heart at 6.25 mg/kg, iv administered within 6 hrs post onset of sustained fever as 30 mins infusion for 10 days (reference value: 2.6 10^7CFU/g); type: functional, CO92
[14] = Volume of distribution at steady state in African green monkey blood at 35 mg/kg administered as iv infusion twice daily for 7 consecutive days measured on day 7 by LC-MS/MS analysis; type: ADME, organism-based; settings: chlorocebus aethiops, read-out: Vdss
[15] = Clearance in African green monkey blood at 35 mg/kg administered as iv infusion twice daily for 7 consecutive days measured on day 1 by LC-MS/MS analysis; type: ADME, organism-based; settings: chlorocebus aethiops
Yersinia pestis [16] = experiment: as §1, with “tracheobronchial lymph nodes” for “spleen”, “7.7” for “1.6”; type: functional, CO92, Lymph node
Yersinia pestis [17] = experiment: Antibacterial activity against Yersinia pestis Colorado 92 infected in African green monkey 8047 model assessed as bacterial burden in kidney at 6.25 mg/kg, iv administered within 6 hrs post onset of sustained fever as 30 mins infusion for 10 days (reference value: 7.1 10^7CFU/g); type: functional, CO92
African green monkey [18] = experiment: Toxicity in African green monkey 7643 model infected with Yersinia pestis Colorado 92 assessed as serum gamma glutamyl-transferase level at 25 mg/kg, iv administered within 6 hrs post onset of sustained fever as 30 mins infusion for 10 days (reference value: 44 IU/L); type: organism-based; settings: chlorocebus sabaeus, in vivo
African green monkey [19] = experiment: Toxicity in African green monkey 7929 model infected with Yersinia pestis Colorado 92 assessed as serum alanine aminotransferase level at 25 mg/kg, iv administered within 6 hrs post onset of sustained fever as 30 mins infusion for 10 days (reference value: 63 IU/L); type: organism-based; settings: chlorocebus sabaeus, in vivo
African green monkey [20] = experiment: Toxicity in African green monkey B6140 model infected with Yersinia pestis Colorado 92 assessed as serum gamma glutamyl-transferase level at 25 mg/kg, iv administered within 6 hrs post onset of sustained fever as 30 mins infusion for 10 days (reference value: 55 IU/L); type: organism-based; settings: chlorocebus sabaeus, in vivo
African green monkey [21] = experiment: Toxicity in African green monkey 8067 model infected with Yersinia pestis Colorado 92 assessed as serum lactate dehydrogenase level at 25 mg/kg, iv administered within 6 hrs post onset of sustained fever as 30 mins infusion for 10 days (reference value: 287 IU/L); type: organism-based; settings: chlorocebus sabaeus, in vivo
Yersinia pestis [22] = experiment: Antibacterial activity against Yersinia pestis Colorado 92 infected in African green monkey B6672 model assessed as bacterial burden in liver at 12.5 mg/kg, iv administered within 6 hrs post onset of sustained fever as 30 mins infusion for 5 days (reference value: 5.2 10^8CFU/g); type: functional, CO92
African green monkey [23] = experiment: Toxicity in African green monkey 7972 model infected with Yersinia pestis Colorado 92 assessed as serum creatinine level at 25 mg/kg, iv administered within 6 hrs post onset of sustained fever as 30 mins infusion for 10 days (reference value: 0.8 mg/dl); type: organism-based; settings: chlorocebus sabaeus, in vivo
[24] = Toxicity in African green monkey B6140 model infected with Yersinia pestis Colorado 92 assessed as total white blood cell count at 25 mg/kg, iv administered within 6 hrs post onset of sustained fever as 30 mins infusion for 10 days (reference value: 6.8 10^3/microL); type: organism-based; settings: chlorocebus aethiops, in vivo
African green monkey [25] = experiment: Toxicity in African green monkey 7643 model infected with Yersinia pestis Colorado 92 assessed as blood urea nitrogen level at 25 mg/kg, iv administered within 6 hrs post onset of sustained fever as 30 mins infusion for 10 days (reference value: 16 mg/dl); type: organism-based; settings: chlorocebus sabaeus, in vivo
Yersinia pestis [26] = experiment: Antibacterial activity against Yersinia pestis Colorado 92 infected in African green monkey B6106 model assessed as bacterial burden in kidney at 25 mg/kg, iv administered within 6 hrs post onset of sustained fever as 30 mins infusion for 5 days (reference value: 7.1 10^7CFU/g); type: functional, CO92

CN[C@@H]1[C@@H](O)[C@@H](O[C@@H]2[C@@H](O)[C@H](O[C@H]3OC(CNCCO)=CC[C@H]3N)[C@@H](N)C[C@H]2NC(=O)[C@@H](O)CCN)OC[C@]1(C)O [PLAZOMICIN]
Activity (Yersinia pestis [1]): 44 CFU/g | Activity (African green monkey [2]): 26 mg/dL | Activity (Yersinia pestis [3]): 16 CFU/g | Activity (Yersinia pestis [4]): 23 CFU/g | Vd [5]: 0.26 L/kg | Activity (African green monkey [6]): 0.8 mg/dL | Activity (African green monkey [7]): 63 IU/L | Activity (Yersinia pestis [8]): 11 CFU/ml | Activity (Yersinia pestis [9]): 93 CFU/ml | Activity (Yersinia pestis [10]): 39 CFU/g | Activity (Yersinia pestis [11]): 95 CFU/g | Activity [12]: 8.5 ×10³ /uL | Activity (Yersinia pestis [13]): 2 ×10⁷ CFU/g | Vd [14]: 0.31 L/kg | clearance [15]: 1.67 mL/min/kg | Activity (Yersinia pestis [16]): 1.2 ×10⁸ CFU/g | Activity (Yersinia pestis [17]): 32 CFU/g | Activity (African green monkey [18]): 35 IU/L | Activity (African green monkey [19]): 41 IU/L | Activity (African green monkey [20]): 39 IU/L | Activity (African green monkey [21]): 478 IU/L | Activity (Yersinia pestis [22]): 76 CFU/g | Activity (African green monkey [23]): 0.7 mg/dL | Activity [24]: 7.2 ×10³ /uL | Activity (African green monkey [25]): 19 mg/dL | Activity (Yersinia pestis [26]): 17 CFU/g
